The results in this text go back to US10195189B2, “2-phenethenyltetrahydro isoquinolines useful as anti-HIV compounds” (priority 2014, dated 2019).

Where two headings read alike, the source gives them in different places.

Series [1] deals with HIV-1 NL4-3 viral clone expressing Renilla luciferase. As to the kind of experiment: microbe, parasite or virus in culture. In kind it is cell-based. Put shortly:
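MT-2 cells (2×10^4/well) were infected at MOI 0.027 with Renilla-luciferase HIV-1 NL4-3 alongside 3-fold compound dilutions for 96 h. Spread was read by EnduRen luminescence and supernatant infectivity on TZM-bl (48 h, MUG fluorescence). Mock-infected cytotoxicity used AlamarBlue. % inhibition versus solvent was fitted by 4-parameter logistic (0–100% constrained) for EC50/CC50.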

The subject of series [2] is MT-2 cells. As to the kind of experiment: Cytotoxicity assay (AlamarBlue) in mock infected MT-2 cells. The format is cell-based, human. Here is the method:
(§1) The present assay was used to screen candidate antiviral compounds by quantification of virus spread and production over several rounds of infection in vitro. MT-2, a HIV-1 permissive human T-cell line, was seeded in microtiter plates and was simultaneously treated with serially diluted compound and inoculated with a HIV-1 NL4-3 viral clone engineered to express Renilla luciferase in place of Net Following treatment, the culture was incubated for 96 hours. After the incubation, media was collected and used to estimate relative infectivity on the indicator cell line, TZM-bl. Additionally, viral spread was quantified by measuring luciferase activity via a commercially available luciferase substrate. In parallel, MT-2 cells were seeded and inoculated with mock virus in the presence of serially diluted compound. Compound toxicity was quantified 96 hours after treatment with AlamarBlue.
(§2) MT-2 (NIH Aids reagent program 237) cells were grown and maintained in an incubator at 37° C. with 5% CO2 using a basal medium of RPMI-1640 supplemented with 10% FBS. Cells were seeded in 100 μl at 2×10^4 cells/well in white walled 96-well microtiter plates. Candidate compounds were 3-fold serially diluted in the appropriate solvent. Solvent without compound was used as a no drug reference. Cells were inoculated at a multiplicity of 0.027 with an HIV-1 NL4-3 virus stock engineered to express Renilla luciferase in place of Net Diluted virus stock was first added to serially diluted compound. Compound and virus were delivered to cells in an equal volume (100 μl) and treated cultures were returned to the incubator for 96 hours. In parallel, plates for cytotoxicity estimates were prepared in the same way except cells were plated in clear walled 96-well microtiter plates and were mock infected.
(§3) At 96 hours post treatment, 20 μl AlamarBlue proliferation reagent was added to 200 μl treated and mock infected cultures and incubated for 3 hours at 37° C. with 5% CO2 then read at 545, 590 nm on fluorescence plate reader (Biotek).
(§4) For all assays, data was imported into Accelrys Assay Explorer 3.3. In Assay Explorer, % inhibition (antiviral or cytotoxicity) was calculated using the solvent control as a reference by the following equation: 1−(SignalCompound/SignalReference). The % Inhibition and compound concentration data was fitted using the following 4-parameter logistic model (Assay Explorer model 42):
(§5) [formula] where X is compound concentration, Y is % inhibition, D is the maximum % Inhibition (constrained to 100%), C is IC50 value or inflection point, B is the hill slope, and A is the minimum % inhibition (constrained to 0%). The IC50 value is reported as the EC50 or CC50 depending on the assay endpoint. EC50 represents the effective concentration at which virus replication is inhibited by 50 percent. CC50 represents the concentration that results in the death of 50 percent of the host cells. The selectivity or therapeutic index (SI or TI), is the ratio of CC50 over EC50 and represents the relative effectiveness in inhibiting viral replication compared to inducing cell death.

Assay in series [3]: as above
In kind it is cell-based, human. The settings on record: human. How it is done:
as §1, §2, §3, §4, §5

Setting [4] is: Human immunodeficiency virus 1, NL43, MT2, 96 h.
[5] abbreviates: mock infected MT-2 cells, 96 hours, AlamarBlue, read-out: CC50.

In turn, `COc1cc(C(C)(C)C)c(/C=C/C2NCCc3cc(OCc4ccccc4)c(OC)cc32)cc1OCc1ccccc1` (centres unmarked) [AS, 6-Benzyloxy-1-[(E)-2-(5-benzyloxy-2-tert-butyl-4-methoxy-phenyl)vinyl]-7-methoxy-1,2,3,4-tetrahydroisoquinoline] gave a concentration for a half-maximal effect (EC50) in series [1] (setting [4]) of 4.22 µM. Further, the half-maximal cytotoxic concentration (CC50) in series [2] (setting [5]) was found to be 5.36 µM.

As for `COc1cc2c(cc1OCc1ccccc1)CCNC2/C=C/c1ccc2cn[nH]c2c1` (centres unmarked) [BT, 6-Benzyloxy-1-[(E)-2-(1H-indazol-6-yl)vinyl]-7-methoxy-1,2,3,4-tetrahydroisoquinoline], the EC50 in series [1] (MT-2 cells infected with HIV-1 NL4-3, 96 hours, read-out: EC50) was 0.613 µM. Besides, the CC50 in series [2] worked out at 7.98 µM.

On to `COc1ncc(/C=C/C2NCCc3cc(OCc4ccccc4)c(OC)cc32)cn1` (centres unmarked) [DD, (E)-(benzyloxy)-7-methoxy-1-(2-(2-methoxypyrimidin-5-yl)vinyl)-1,2,3,4-tetrahydroisoquinoline], for which the response in series [1] (setting [4]) was half-maximal at 11.1 µM (EC50). Also, in series [2] (human, 96 h), the CC50 turned out to be 100 µM.

In series [1] (setting [4]), `CCOCc1cc(/C=C/C2NCCc3cc(OCc4ccccc4)c(OC)cc32)ccc1OC` (centres unmarked) [EP, (E)-6-(benzyloxy)-1-(3-(ethoxymethyl)-4-methoxystyryl)-7-methoxy-1,2,3,4-tetrahydroisoquinoline] showed an EC50 of 0.846 µM. The compound also returned a half-maximal cytotoxic concentration (CC50) at 96 h in series [3] of 4 µM.

In the case of `COc1cc(C)c(/C=C/C2c3cc(OC)c(OCc4ccccc4)cc3CCN2C(=O)c2cccc(N)n2)cc1OCc1ccccc1` (centres unmarked) [Example F, (6-Amino-2-pyridyl)-[6-benzyloxy-1-[(E)-2-(5-benzyloxy-4-methoxy-2-methyl-phenyl)vinyl]-7-methoxy-3,4-dihydro-1H-isoquinolin-2-yl]methanone], the response in series [1] (setting [4]) was half-maximal at 5.05 µM (EC50). Moreover, half-maximal cytotoxicity in series [2] (human, 96 h) (CC50) was put at 100 µM.

The compound `COc1cc(C)c(/C=C/C2c3cc(OC)c(OCc4ccccc4)cc3CCN2C(=O)c2cnccn2)cc1OCc1ccccc1` (centres unmarked) [Example H, [6-Benzyloxy-1-[(E)-2-(5-benzyloxy-4-methoxy-2-methyl-phenyl)vinyl]-7-methoxy-3,4-dihydro-1H-isoquinolin-2-yl]-pyrazin-2-yl-methanone] registered a 50% effective concentration (EC50) in series [1] (setting [4]) of 4.48 µM. The CC50 in series [2] (human, 96 h) is 100 µM.

For `COC(=O)N1CCc2cc(OCc3ccccc3)c(OC)cc2C1/C=C/c1cc(OC)c(OC)cc1C` (centres unmarked) [Example I, Methyl 6-benzyloxy-1-[(E)-2-(4,5-dimethoxy-2-methyl-phenyl)vinyl]-7-methoxy-3,4-dihydro-1H-isoquinoline-2-carboxylate], the 50% effective concentration (EC50) in series [1] (setting [4]) came out at 4.48 µM. For the same compound, in series [2] (human, 96 h), the CC50 came to 100 µM.

In series [1] (setting [4]), `COc1cc(C)c(/C=C/C2c3cc(OC)c(OCc4ccccc4)cc3CCN2C(=O)c2cccnc2N)cc1OCc1ccccc1` (centres unmarked) [Example K, (2-Amino-3-pyridyl)-[6-benzyloxy-1-[(E)-2-(5-benzyloxy-4-methoxy-2-methyl-phenyl)vinyl]-7-methoxy-3,4-dihydro-1H-isoquinoline-2-yl]methanone] returned a half-maximal effective concentration (EC50) of 2.88 µM. In series [2] (human, 96 h), this compound displayed a CC50 of 100 µM.

Take `COc1cc(C)c(/C=C/C2c3cc(OC)c(OCc4ccccc4)cc3CCN2C(=O)c2ccccn2)cc1OCc1ccccc1` (centres unmarked) [Example M, [6-benzyloxy-1-[(E)-2-(5-benzyloxy-4-methoxy-2-methyl-phenyl)vinyl]-7-methoxy-3,4-dihydro-1H-isoquinolin-2-yl]-(2-pyridyl)methanone]: in series [1] (setting [4]), the 50% effective concentration (EC50) came to 2.09 µM. Half-maximal cytotoxicity in series [2] (human, 96 h) (CC50) was put at 100 µM.

Compound `COc1cc(C)c(/C=C/C2c3cc(OC)c(OCc4ccccc4)cc3CCN2C(=O)c2ccnc(N)c2)cc1OCc1ccccc1` (centres unmarked) [Example N, (2-amino-4-pyridyl)-[6-benzyloxy-1-[(E)-2-(5-benzyloxy-4-methoxy-2-methyl-phenyl)vinyl]-7-methoxy-3,4-dihydro-1H-isoquinolin-2-yl]methanone] had an EC50 in series [1] (setting [4]) of 2.03 µM. The CC50 in series [2] (human, 96 h) came out at 100 µM.

As to `COc1cc(C)c(/C=C/C2c3cc(OC)c(OCc4ccccc4)cc3CCN2C(=O)c2ccc(N)nc2)cc1OCc1ccccc1` (centres unmarked) [Example P, (6-amino-3-pyridyl)-[6-benzyloxy-1-[(E)-2-(5-benzyloxy-4-methoxy-2-methyl-phenyl)vinyl]-7-methoxy-3,4-dihydro-1H-isoquinolin-2-yl]methanone], the EC50 in series [1] (setting [4]) stood at 1.69 µM. In series [2] (human, 96 h), this compound gave a CC50 of 100 µM.

Consider `COc1cc(C)c(/C=C/C2c3cc(OC)c(OCc4ccccc4)cc3CCN2C(N)=O)cc1OCc1ccccc1` (centres unmarked) [Example R, 6-benzyloxy-1-[(E)-2-(5-benzyloxy-4-methoxy-2-methyl-phenyl)vinyl]-7-methoxy-3,4-dihydro-1H-isoquinoline-2-carboxamide], for which a half-maximal effect in series [1] (setting [4]) (EC50) was put at 1.18 µM. In addition, the half-maximal cytotoxic concentration (CC50) in series [2] (setting [5]) is 39.3 µM.

In series [1] (setting [4]), `COc1cc(C)c(/C=C/C2c3cc(OC)c(OCc4ccccc4)cc3CCN2C(=O)c2cccnc2)cc1OCc1ccccc1` (centres unmarked) [Example T, [6-benzyloxy-1-[(E)-2-(5-benzyloxy-4-methoxy-2-methyl-phenyl)vinyl]-7-methoxy-3,4-dihydro-1H-isoquinolin-2-yl]-(3-pyridyl)methanone] yielded an EC50 of 0.93 µM. In series [2] (human, 96 h), this compound had a CC50 of 100 µM.

In series [1] (setting [4]), `COc1ccc(/C=C/C2c3cc(OC)c(OCc4ccccc4)cc3CCN2C)cc1OCc1ccccc1` (centres unmarked) [Example V, 6-benzyloxy-1-[(E)-2-(3-benzyloxy-4-methoxy-phenyl)vinyl]-7-methoxy-2-methyl-3,4-dihydro-1H-isoquinoline] came in with a concentration giving a half-maximal response (EC50) of 0.78 µM.

`COc1cc2c(cc1OCc1ccccc1)CCNC2/C=C/c1ccccc1C` (centres unmarked) [Example W, 6-benzyloxy-7-methoxy-1-[(E)-2-(o-tolyl)vinyl]-1,2,3,4-tetrahydroisoquinoline] returned a half-maximal effective concentration (EC50) in series [1] (setting [4]) of 0.69 µM.

`COc1cc2c(cc1OCc1ccccc1)CCNC2/C=C/c1ccc(F)cc1C` (centres unmarked) [Example X, 6-benzyloxy-1-[(E)-2-(4-fluoro-2-methyl-phenyl)vinyl]-7-methoxy-1,2,3,4-tetrahydroisoquinoline]: a half-maximal response in series [1] (setting [4]) (EC50) required 0.62 µM.

Turning to `COc1cc(C)c(/C=C/C2c3cc(OC)c(OCc4ccccc4)cc3CCN2C(=O)OC(C)(C)C)cc1OCc1ccccc1` (centres unmarked) [Example Y, tert-butyl 6-benzyloxy-1-[(E)-2-(5-benzyloxy-4-methoxy-2-methyl-phenyl)vinyl]-7-methoxy-3,4-dihydro-1H-isoquinoline-2-carboxylate], the 50% effective concentration (EC50) in series [1] (setting [4]) amounted to 0.39 µM.

Consider `COc1ccc(/C=C/C2NCCc3cc(OCc4ccccc4)c(OC)cc32)c(C(F)(F)F)c1` (centres unmarked) [Example Z, 6-benzyloxy-7-methoxy-1-[(E)-2-[4-methoxy-2-(trifluoromethyl)phenyl]vinyl]-1,2,3,4-tetrahydroisoquinoline], for which the midpoint of the response in series [1] (setting [4]), the EC50, lay at 0.35 µM. For the same compound, in series [2] (setting [5]), the CC50 was 100 µM.
